According to patent publication US5994342A, “3-(substituted methyl)-4-oxa-1-azabicyclo[3.2.0]heptan-7-one derivatives useful as antitumor agents” (priority 1994, dated 1999):
Converted amounts (≈) assume the structure as drawn. Structures can show the parent of a compound that is named as a salt.

What was measured:
[1] = test system: KB cells; assay: In vitro KB cell cytotoxicity assay (crystal violet); assay type: cell-based; details: Homo sapiens, 72 h, 3 days culture, read-out: KB Cell Cytotoxicity TD50
Description: In Vitro KB Cell Cytotoxicity Assay In vitro KB cell cytoxocity assay was done by modification of the crystal violet assay ([…] et al., Anal Biochem., 159, 109-113 (1986). KB cells were cultivated in Eagles minimum essential medium supplemented with 10% calf serum and incubated at 37° C. in a humidified 5% CO2 atmosphere to prepare a cell stock. Cells were counted using a neubauer hemocytometer and seeded in 96 well plates at 100 μl of 3×10^4 cells/ml and cultured for one day. […] Control wells were identical except that test compound was absent. These were cultured for three days. Then the cells were fixed with addition of 20 μl of 25% glutaraldehyde for 15 minutes, washed with water and dried. Then stained with 100 μl of 0.05% crystal violet for 15 minutes, washed with water and dried. The wells are eluted with […] of 0.05M NaH2 PO4 /ethanol (1:1 v/v) and read at OD540 on a multiscan spectrophotometer. Inhibition value of cell growth was calculated based on optical density using the following equation; [formula] TD50 values were calculated from linear regression ines of the log-logit plot.

[2] = test system: Sarcoma 180; assay: In vivo antitumor activity against Sarcoma 180; design: species or system male ICR mice; details: i.p., days 1, 5 and 9
Description: In Vivo Antitumor Activity Against Sarcoma 180
The compounds of general formula (I) were tested in vivo against Sarcoma 180 xenografted tumor to mice as illustrated herein after.
Sarcoma 180, 5×10^6 cells were inoculated by S.C. to male ICR mice (6 week old) on day 0. Drugs were administered on days 1, 5 and 9. Mice were killed and tumor weight was measured on day 12 after transplantation. The percentage inhibition of tumor growth was calculated from the mean tumor weight of the treated group compared with that of the control group. Number of mice used in each group was between 6 to 7.

[3] = Mus musculus, Sarcoma-180, ip, 288 h, 12.5 mg/kg/day, tumor s.c., tumor weight day 12, read-out: % Inhibition of tumor growth
[4] = Mus musculus, Sarcoma-180, ip, 288 h, 25 mg/kg/day, tumor s.c., tumor weight day 12, read-out: % Inhibition of tumor growth
[5] = Mus musculus, Sarcoma-180, ip, 288 h, 100 mg/kg/day, tumor s.c., tumor weight day 12, read-out: % Inhibition of tumor growth
[6] = Mus musculus, Sarcoma-180, ip, 288 h, 50 mg/kg/day, tumor s.c., tumor weight day 12, read-out: % Inhibition of tumor growth
[7] = Mus musculus, Sarcoma-180, ip, 288 h, 6.3 mg/kg/day, tumor s.c., tumor weight day 12, read-out: % Inhibition of tumor growth

SMILES	IC50 [1] [µg/mL]	Mortality in 12 days ([2]; 12.5 mg/kg/day)	Mortality in 12 days ([2]; 25 mg/kg/day)	inhibition in vivo at 12.5 mg/kg [2, 3] [%]	inhibition in vivo at 25 mg/kg [2, 4] [%]	Mortality in 12 days ([2]; 50 mg/kg/day)	inhibition in vivo at 50 mg/kg [2, 6] [%]	further results
O=C(Cc1cccs1)NC[C@@H]1CN2C(=O)C[C@H]2O1 (racemic) [Example 31, (3RS,5RS)-3-[N-(Thiophen-2-yl)acetylaminomethyl]-4-oxa-1-azabicyclo[3.2.0]heptan-7-one]	0.098 (≈ 0.368 µM)	–	–	–	–	–	–	Mortality in 12 days ([2]; 40 mg/kg/day): 1/6; inhibition in vivo at 40 mg/kg ([2]; Mus musculus, Sarcoma-180, ip, 288 h, 40 mg/kg/day, tumor s.c., tumor weight day 12, read-out: % Inhibition of tumor growth): 35.5%
CCN(CC)C(=O)NC[C@@H]1CN2C(=O)C[C@H]2O1 (racemic) [Example 33, (3RS,5RS)-3-[N-(N,N-Diethylcarbamyl)]aminomethyl-4-oxa-1-azabicyclo[3.2.0]heptan-7-one]	0.246 (≈ 1.02 µM)	–	–	–	–	–	–	Mortality in 12 days ([2]; 22.5 mg/kg/day): 0/6; Mortality in 12 days ([2]; 45 mg/kg/day): 0/6; Mortality in 12 days ([2]; 90 mg/kg/day): 0/6; inhibition in vivo at 22.5 mg/kg ([2]; Mus musculus, Sarcoma-180, ip, 288 h, 22.5 mg/kg/day, tumor s.c., tumor weight day 12, read-out: % Inhibition of tumor growth): 46.6%; inhibition in vivo at 45 mg/kg ([2]; Mus musculus, Sarcoma-180, ip, 288 h, 45 mg/kg/day, tumor s.c., tumor weight day 12, read-out: % Inhibition of tumor growth): 66.2%; inhibition in vivo at 90 mg/kg ([2]; Mus musculus, Sarcoma-180, ip, 288 h, 90 mg/kg/day, tumor s.c., tumor weight day 12, read-out: % Inhibition of tumor growth): 74.5%
O=C(NC[C@@H]1CN2C(=O)C[C@H]2O1)NC[C@@H]1CN2C(=O)C[C@H]2O1 (racemic) [Example 34, N,N'-Di-{[(3RS,5RS)-7-oxo-1-aza-4-oxabicyclo[3.2.0]hept-3-yl]methyl}urea]	0.151 (≈ 0.487 µM)	0/6	5/6	76.3	92.5	–	–	Mortality in 12 days ([2]; 6.25 mg/kg/day): 0/6; inhibition in vivo at 6.25 mg/kg ([2]; Mus musculus, Sarcoma-180, ip, 288 h, 6.25 mg/kg/day, tumor s.c., tumor weight day 12, read-out: % Inhibition of tumor growth): 59.8%
CS(=O)(=O)NC[C@H]1CN2C(=O)C[C@H]2O1 (racemic) [Example 35, (3RS,5RS)-3-(N-Methanesulfonylaminomethyl)-4-oxa-1-azabicyclo[3.2.0]heptan-7-one]	0.198 (≈ 0.899 µM)	–	–	–	–	–	–	Mortality in 12 days ([2]; 100 mg/kg/day): 1/6; inhibition in vivo at 100 mg/kg [2, 5]: 64.6%
Cl.NCC(=O)OC[C@H]1CN2C(=O)C[C@@H]2O1 (racemic) [Example 39, (3RS,5SR)-3-(Aminoacetyl)oxymethyl-4-oxa-1-azabicyclo[3.2.0]heptan-7-one hydrochloride]	0.613	0/6	0/6	41.9	56.7	0/6	76.7	–
Cl.NCC(=O)NCC(=O)OC[C@H]1CN2C(=O)C[C@@H]2O1 (racemic) [Example 40B, (3RS,5SR)-3-[N-(Aminoacetyl)aminoacetyl]oxymethyl-4-oxa-1-azabicyclo[3.2.0]heptan-7-one hydrochloride]	0.636	0/6	0/6	48.3	54	0/6	72	–
CC(=O)NC(COC(C)=O)C(=O)OC[C@H]1CN2C(=O)C[C@@H]2O1 (mixture of isomers) [Example 75B, (3RS,5SR)-3-(2-Acetamido-3-acetoxypropanoyl)oxymethyl-4-oxa-1-azabicyclo[3.2.0]heptan-7-one]	0.567 (≈ 1.8 µM)	0/6	0/6	37.8	65.1	4/6	77.8	–
COc1ccc(S(=O)(=O)NC[C@H]2CN3C(=O)C[C@@H]3O2)cc1 (relative stereo) [Example 38, (3RS,5RS)-3-N-(4-Methoxybenzenesulfonyl)aminomethyl-4-oxa-1-azabicyclo[3.2.0]heptan-7-one]	0.158 (≈ 0.506 µM)	–	0/6	–	26.5	0/6	55.4	Mortality in 12 days ([2]; 100 mg/kg/day): 1/6; inhibition in vivo at 100 mg/kg [2, 5]: 72%
NCC(=O)NC[C@@H]1CN2C(=O)C[C@H]2O1 (relative stereo) [Example 43, (3RS,5RS)-3-N-(Aminoacetyl)aminomethyl-4-oxa-1-azabicyclo[3.2.0]heptan-7-one hydrochloride]	0.429	0/6	0/6	57	58.9	0/6	72.1	Mortality in 12 days ([2]; 6.3 mg/kg/day): 0/6; inhibition in vivo at 6.3 mg/kg [2, 7]: 48.7%
CC(=O)NCC(=O)NC[C@@H]1CN2C(=O)C[C@H]2O1 (relative stereo) [Example 44, (3RS,5RS)-3-N-(N-Acetylaminoacetyl)aminomethyl-4-oxa-1-azabicyclo[3.2.0]heptan-7-one]	0.341 (≈ 1.41 µM)	0/6	4/6	45.9	85.3	–	–	–
CC(=O)NC[C@H]1CN2C(=O)C[C@@H]2O1 [Example 2, (3S,5S)-3-(N-Acetylaminomethyl)-4-oxa-1-azabicyclo[3.2.0]heptan-7-one]	0.77 (≈ 4.18 µM)	–	–	–	–	–	–	Mortality in 12 days ([2]; 10 mg/kg/day): 0/6; Mortality in 12 days ([2]; 20 mg/kg/day): 1/7; inhibition in vivo at 10 mg/kg ([2]; Mus musculus, Sarcoma-180, ip, 288 h, 10 mg/kg/day, tumor s.c., tumor weight day 12, read-out: % Inhibition of tumor growth): 44.7%; inhibition in vivo at 20 mg/kg ([2]; Mus musculus, Sarcoma-180, ip, 288 h, 20 mg/kg/day, tumor s.c., tumor weight day 12, read-out: % Inhibition of tumor growth): 77.5%
N[C@@H](CC(=O)O)C(=O)NCC(=O)NCC1CN2C(=O)CC2O1 (stereo partly drawn) [Example 46B, (3RS,5RS)-3-N-[N-(L-2-Amino-3-carboxypropanoyl)aminoacetyl]aminomethyl-4-oxa-1-azabicyclo[3.2.0]heptan-7-one]	2.63 (≈ 8.37 µM)	0/6	0/6	44.7	55.7	1/6	76.9	–
CC(C)[C@H](N)C(=O)N[C@@H](C)C(=O)OCC1CN2C(=O)CC2O1 (stereo partly drawn) [Example 49B, (3RS,5SR)-3-[L-2-N-(L-2-Amino-3-methylbutyryl)aminopropanoyl]oxymethyl-4-oxa-1-azabicyclo[3.2.0]heptan-7-one hydrochloride]	0.537	–	0/6	–	55.7	0/6	71	–
C[C@@H](NC(=O)Cc1cccs1)C(=O)N[C@H](C)C(=O)OCC1CN2C(=O)CC2O1 (stereo partly drawn) [Example 52, (3RS,5SR)-3-{D-2-N-[D-2-N-(Thiophen-2-yl)acetylaminopropanoyl]aminopropanoyl}oxymethyl-4-oxa-1-azabicyclo[3.2.0]heptan-7-one]	0.197 (≈ 0.481 µM)	–	0/6	–	45.2	0/6	63.9	Mortality in 12 days ([2]; 100 mg/kg/day): 2/6; inhibition in vivo at 100 mg/kg [2, 5]: 70.7%
C[C@@H](N)C(=O)NCC1CN2C(=O)CC2O1 (stereo partly drawn) [Example 53B, (3RS,5RS)-3-N-(D-2-Aminopropanoyl)aminomethyl-4-oxa-1-azabicyclo[3.2.0]heptan-7-one hydrochloride]	0.316	0/6	1/6	61.9	73.8	–	–	Mortality in 12 days ([2]; 6.3 mg/kg/day): 0/6; inhibition in vivo at 6.3 mg/kg [2, 7]: 47.3%
CC(C)[C@H](NC(=O)CN)C(=O)OCC1CN2C(=O)CC2O1 (stereo partly drawn) [Example 55B, (3RS,5SR)-3-[L-2-(N-Aminoacetyl)amino-3-methylbutyryl]oxymethyl-4-oxa-1-azabicyclo[3.2.0]heptan-7-one hydrochloride]	0.522	–	0/6	–	47.6	0/6	74.4	–
